The values that follow are results of earlier work, collected in patent US20140057918A1, “Methods of Use for Monomethyl Fumarate and Prodrugs Thereof” (XenoPort, Inc., priority 2012, published 2014).

The subject of one data set is herpes simplex virus. Conditions: animals infected with the herpes simplex virus.

The structures appear in SMILES notation. Structures can show the parent of a compound that is named as a salt.

For the molecule `COC(=O)/C=C/C(=O)OC` [Dimethyl fumarate, Dimethyl (E)-butenedioate], the aqueous solubility result is “poor”. Further, the herpes stromal keratitis result with herpes simplex virus was “improved”.
